Results: patent publication EP0705258B1, “AZOLYL-CYCLIC AMINE DERIVATIVES WITH IMMUNOMODULATORY ACTIVITY” (Knoll AG, priority 1993, dated 1995)

How the values were obtained:
[1] = tested on: tumour necrosis factor-α (TNF-α); test: Mouse Tumour Necrosis Factor Test (Test B), mouse endotoxin shock model, serum TNF-α by ELISA; format: in vivo, BALB/c mice; conditions: Mus musculus; minimum effective oral dose giving significant reduction in serum TNF-α of ≥35%; dosed 2 h before LPS i.p.; ≤ = active at dose given but not tested at lower doses; read-out: MTNF:MED
From the text: Preferred compounds of the present invention are active in an in-vivo test which determines the ability of the compounds to inhibit the release of tumour necrosis factor-α (TNF-α) in a mouse endotoxin shock model (Test B). This model is similar to that described by Zuckerman and Bendele (1989), Infection and Immunity 57 (10): p3009-3013.
Each compound of formula I was combined with a carrier of a solution of 1.5% v/v sorbitan esters under the trade name Tween 80 and 0.25% v/v cellosize in sterile water (100 µl) and was administered orally to a group of four BALB/c mice. The concentration of compound was such as to provide dosages selected from 100, 30, 10, 3, 1, 0.1 and 0.03 mg/kg. Two hours after such oral administration, lipopolysaccharide (LPS) (E. coli 0127:B8) (100 µg) in sterile water (0.2 ml) was administered intraperitoneally to the test mice.
A control group of eight BALB/c mice was treated in a similar manner as the test group except that no test compound was included with the carrier.
One hour after LPS administration the mice were killed and blood was collected by cardiac puncture. The blood was incubated at 20°C for 2 hours and the serum was separated from the clotted blood following centrifugation. Serum tumour necrosis factor-α (TNF-α) levels were assayed by an enzyme-linked immunosorbent assay (ELISA) and the concentration of TNF-α in each of the drug-treated groups was compared with the control group by one-way analysis of variance followed by a multiple t-test.
The ELISA was carried out by coating a 96-well vinyl assay plate (Costar) overnight at 4°C with 50 µl per well of 2 µg/ml hamster anti-mouse TNF monoclonal antibody in 0.1M sodium hydrogen carbonate buffer at pH 8.2. After washing the plate with phosphate buffered saline (PBS) containing 0.05% v/v sorbitan esters under the trade name Tween 20 (wash buffer), a blocking/dilution buffer (10% sheep serum in PBS containing 0.1% v/v sorbitan esters under the trade name Tween 20 (200 µl)) was aliquoted to each well and incubated at 37°C for 0.5 hours. After aspirating the blocking buffer, the serum samples and pure TNF (as a standard) diluted in blocking/dilution buffer, were added to the wells and incubated at 37°C for 2 hours. After washing with the wash buffer, a polyclonal rabbit anti-mouse TNF-α antibody in blocking/dilution buffer (100 µl of a 1 in 10,000 dilution) was added and incubated for a further 1.5 hours at 37°C. After further washes, anti-rabbit IgG peroxidase conjugate (100 µl of a 1 in 4000 dilution) was added and incubated at 37°C for 0.5 hours. After further washing, the substrate solution (100 µl per well of 0.1 mg/ml 3,3', 5,5'-tetramethylbenzidine dihydrochloride in 0.1M phosphate citrate buffer, pH 5.0, to which 2 µl of 30% hydrogen peroxide per 10 ml was added just before use) was added and the colour allowed to develop. The reaction was stopped by the addition of 1M sulphuric acid (25 µl) and the optical density read in a multichannel spectrophotometer at 450 nm. The mean TNF-α concentration was determined by comparison with the standard curve and the mean TNF-α concentration for each group compared with that produced by the control group. Drug treatments which cause a statistically significant reduction in TNF-α concentration of ≥35% at a single dose at 100 mg/kg or less were considered active.

[2] = tested on: lymphocyte proliferation (BALB/c responder and mitomycin C treated C57BL/6 stimulator spleen cells); test: Mixed Lymphocyte Reaction (Test A), one-way MLR, tritiated thymidine incorporation; format: cell-based, mice; conditions: Mus musculus; concentration causing 50% inhibition of lymphocyte proliferation, by linear interpolation; ≤ = active at this concentration but not tested at lower doses
Experimental: A mixed lymphocyte reaction (MLR) occurs when lymphocytes from two genetically dissimilar individuals, or inbred strains of mice are cultured together. An MLR results in the activation and proliferation of lymphocytes, which is measured by the incorporation of radiolabelled thymidine into the cellular DNA synthesised during cell division. A 'one-way' MLR is used to determine the immunosuppressive activity of test compounds in vitro. In this reaction one population of spleen cells serves as the stimulator cells and is treated with mitomycin C to prevent cell division. Spleen cells from a second allogeneic population (responder cells) are untreated and when mixed with the stimulator cells are able to undergo division which is measured. The degree of proliferation is measured in the presence and absence of test compound to assess the immunosuppressive activity of the compound.
The techniques for carrying out lymphocyte proliferation assays including MLRs are well known, eg Bradley, pages 156-166, in Mishell and Shiigi, Eds. Selected Methods in Cellular Immunology (Freeman, San Francisco, 1980); and Battisto et al, methods in Enzymology 1987; 150: 83-91. Various slight modifications of these techniques are in use and that used herein is described in Gibb, Webber and Bowen, J Immunological Methods 1985; 81: 107-113.
Cell suspensions obtained from the spleens of female BALB/c and C57BL/6 strain mice of between 6 and 9 weeks of age were used as sources of responder and stimulator cells respectively. The mice were killed using a rising concentration of CO2 and the spleens removed aseptically and teased using a scalpel and forceps to produce a single cell suspension in Hanks balanced salt solution (HBSS). The suspensions were filtered through cell strainers (Falcon), sedimented by centrifugation and resuspended in Tris-buffered ammonium chloride pH 7.2 (medium D) to lyse the erythrocytes. The cells were sedimented again and washed twice in HBSS before resuspending in complete RPMI 1640 tissue culture medium (medium E). The C57BL/6 cells were resuspended to 9 mls per spleen and a solution of mitomycin C at 400 µg/ml in medium E added to give a final concentration of 40 µg/ml. After incubation of the C57BL/6 cells at 37°C for 30 minutes in an atmosphere of 5% CO2 and 95% air, the cells were sedimented and washed 3 times in medium E. Both cell suspensions were diluted in medium E to 5 x 10^6 cells/ml. 100µl of each of the responder and stimulator cell suspensions were aliquoted into the wells of 96 well flat bottom microtitre plates containing 50 µl of test compound at an appropriate dilution (initially 50 µM diluted in medium E from a stock solution at 100 mM in dimethyl sulphoxide) giving a final test compound concentration of 10 µM (final dilution). Compounds active at this concentration were tested at further final dilution of 1 µM, 0.1 µM and 0.01 µM and 0.001 µM to determine the concentration of test compound which causes 50% inhibition of the immune response (IC50). After four days of culture at 37°C in a humidified atmosphere of 5% CO2 and 95% air, 1 µCi of tritiated thymidine in 20 µl of medium E was added to each well and the plates incubated for a further 24 hours. Cells were then harvested onto Inotech G7 glass fibre filter mats using an Inotech cell harvester. The filters were transferred to vials to which 2 ml of Packard Emulsifier-Safe scintillation fluid was added and the radioactivity from the incorporated thymidine was counted in a Packard liquid scintillation counter. The counts per minute (CPM) reflect the degree of lymphocyte proliferation. The data were analysed to determine the percentage inhibition of lymphocyte proliferation by the test compound. […]

`c1ccc(OCCN2CCC(CCn3ccnc3)CC2)cc1` [Example 87, 4-[2-(Imidazol-1-yl)ethyl]-1-(2-phenoxyethyl)piperidine] gave a minimal effective dose [1] of no more than 100 mg/kg and an IC50 [2] of 8000 nM.

In the case of `C(=Cc1ccccc1)CN1CCC(CCn2ccnc2)CC1` [Example 90, 1-Cinnamyl-4-[2-(imidazol-1-yl)ethyl]-piperidine], the minimal effective dose [1] is reported as no more than 30 mg/kg and the IC50 [2] is reported as 2200 nM.

`O=C(CN1CCC(CCn2ccnc2)CC1)Nc1ccc(C(F)(F)F)cc1` [Example 91, 4-[2-(Imidazol-1-yl)ethyl]piperidino-4'-trifluoromethylacetanilide] gave a minimal effective dose [1] of 30 mg/kg and an IC50 [2] of 100 nM.

`CC(c1ccc(Cl)cc1)N1CCC(CCn2ccnc2)CC1` (centres unmarked) [Example 93, 1-[1-(4-chlorophenyl)ethyl]-4-[2-(imidazol-1-yl)-ethyl]piperidine] showed a minimal effective dose [1] of 30 mg/kg and an IC50 [2] of 1100 nM.

`Cl.Cl.c1ccc(CCCN2CCC(CCn3ccnc3)CC2)cc1` [Example 98, 4-[2-(imidazol-1-yl)ethyl]-1-(3-phenylpropyl)piperidine dihydrochloride] gave a minimal effective dose [1] of 30 mg/kg and an IC50 [2] of 300 nM.

`c1ccc(CCCN2CCC(Cn3ccnc3)CC2)cc1` [Example 102, 4-Imidazol-1-ylmethyl-1-(3-phenylpropyl)piperidine] showed a minimal effective dose [1] of no more than 100 mg/kg and an IC50 [2] of 5200 nM.

With `CC1CN(CCCc2ccccc2)CCC1CCn1ccnc1` (centres unmarked) [Example 103, 4-[2-(Imidazol-1-yl)ethyl]-3-methyl-1-(3-phenylpropyl)piperidine] the minimal effective dose [1] was no more than 30 mg/kg and the IC50 [2] was 1900 nM.

In the case of `c1ccc(CCCN2CCC(CCn3ccnc3-c3ccccc3)CC2)cc1` [Example 109, 4-[2-(2-Phenylimidazol-1-yl)ethyl]-1-(3-phenylpropyl)piperidine], the minimal effective dose [1] is reported as 100 mg/kg and the IC50 [2] is reported as 3600 nM.

For `Cc1nc2ccccc2n1CCC1CCN(CCCc2ccccc2)CC1` [Example 112, 2-Methyl-1-{2-[1-(3-phenylpropyl)piperidin-4-yl]ethyl}benzimidazole], the minimal effective dose [1] was 100 mg/kg and the IC50 [2] was 3000 nM.

`CC(Cn1ccnc1)C1CCN(CCCc2ccccc2)CC1` (centres unmarked) [Example 113, 4-[2-(Imidazol-1-yl)-1-methylethyl]-1-(3-phenylpropyl)piperidine] showed a minimal effective dose [1] of 10 mg/kg and an IC50 [2] of 300 nM.

In the case of `c1ccc(CCCN2CCC(CCn3cnc4ccccc43)CC2)cc1` [Example 114, 1-{2-[1-(3-Phenylpropyl)piperidin-4-yl]-ethyl}benzimidazole], the minimal effective dose [1] is reported as 30 mg/kg and the IC50 [2] is reported as 4200 nM.

Work on `Cc1nc(Cl)c(Cl)n1CCC1CCN(CCCc2ccccc2)CC1` [Example 115, 4-[2-(4,5-Dichloro-2-methylimidazol-1-yl)ethyl]-1-(3-phenylpropyl)piperidine] yielded a minimal effective dose [1] of 100 mg/kg and an IC50 [2] of 1200 nM.

With `Cc1ncn(CCC2CCN(CCCc3ccccc3)CC2)c1C` [Example 116, 4-[2-(4,5-Dimethylimidazol-1-yl)ethyl]-1-(3-phenylpropyl)piperidine] the minimal effective dose [1] was 30 mg/kg and the IC50 [2] was 2000 nM.

For `Cc1nccn1CCC1CCN(CCCc2ccccc2)CC1` [Example 117, 4-[2-(2-Methylimidazol-1-yl)ethyl]-1-(3-phenylpropyl)piperidine], the minimal effective dose [1] was 100 mg/kg and the IC50 [2] was 200 nM.

Compound `Cc1ccc(CCCN2CCC(CCn3ccnc3)CC2)cc1` [Example 122, 4-[2-(Imidazol-1-yl)ethyl]-1-[3-(4-methylphenyl)propyl]piperidine] has a minimal effective dose [1] of no more than 30 mg/kg and an IC50 [2] of 2800 nM.

In the case of `Clc1ccc(CCCN2CCC(CCn3ccnc3)CC2)cc1` [Example 123, 1-[3-(4-Chlorophenyl)propyl]-4-[2-(imidazol-1-yl)ethyl]piperidine], the minimal effective dose [1] is reported as no more than 30 mg/kg and the IC50 [2] is reported as 700 nM.

Work on `CSc1ccc(CCCN2CCC(CCn3ccnc3)CC2)cc1` [Example 127, 4-[2-(Imidazol-1-yl)ethyl]-1-[3-(4-methylthiophenyl)propyl]piperidine] yielded a minimal effective dose [1] of 30 mg/kg and an IC50 [2] of 1900 nM.

In the case of `c1ccc(CCN2CCC(CCn3ccnc3)CC2)cc1` [Example 128, 4-[2-(Imidazol-1-yl)ethyl]-1-phenethylpiperidine], the minimal effective dose [1] is reported as no more than 30 mg/kg and the IC50 [2] is reported as 2000 nM.

In the case of `c1ccc(CCCCN2CCC(CCn3ccnc3)CC2)cc1` [Example 129, 4-[2-(Imidazol-1-yl)ethyl]-1-(4-phenylbutyl)piperidine], the minimal effective dose [1] is reported as 30 mg/kg and the IC50 [2] is reported as 2100 nM.
